# Measurements: patent US20240368192A1, “Nitrogen-Containing Heterocyclic Compound, and Preparation Method Therefor, Intermediate Thereof, and Application Thereof” (Shanghai Allist Pharmaceuticals Co., Ltd., priority 2021, published 2024)
# Where a name gives a salt, the structure may show the parent alone.
# What was measured:
# Ba/F3 KRAS-G12D cells = Ba/F3 KRAS-G12D cells (Homo sapiens, UniProt P01116, G12D, cells depend on it); test: Proliferation inhibitory activity on Ba/F3 KRAS-G12D stably transfected cell line (CellTiter-Glo, 72 hours); type: cell-based, mouse; details: read-out: Ba/F3 KRAS-G12D IC50
# Chain of Ba/F3 KRAS-G12D cells (P01116 whole entry G12D): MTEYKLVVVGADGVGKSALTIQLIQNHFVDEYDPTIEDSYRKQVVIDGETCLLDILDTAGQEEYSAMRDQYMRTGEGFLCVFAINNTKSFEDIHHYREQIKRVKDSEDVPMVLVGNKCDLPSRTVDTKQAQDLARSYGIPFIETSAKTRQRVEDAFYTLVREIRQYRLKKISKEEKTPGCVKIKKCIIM
# Excerpt: (§1) Test Example 1: Proliferation Inhibitory Activity on Ba/F3 KRAS-G12D, Ba/F3 KRAS-G12V Stably Transfected Cell Lines and AGS Tumor Cell Lines Containing KRAS G12D Mutations
# (§2) To determine the proliferation inhibitory activity of the compounds in vitro on mouse pro-B cells Ba/F3 (Ba/F3 KRAS-G12D and Ba/F3 KRAS-G12V cells stably expressing KRAS G12D/V mutant proteins) and gastric cancer AGS cells expressing KRAS G12D mutant protein.
# (§3) Cell sources. Ba/F3 KRAS-G12D and Ba/F3 KRAS-G12V were purchased from Kyinno Biotech (Beijing) Co., Ltd, Cat. No.: KC-1259 and KC-1261, respectively; AGS was purchased from Shanghai Bioleaf Biotech Co., Ltd.
# (§4) Cells in the logarithmic growth phase were seeded in a 96-well plate (8000, 8000, 4000 cells/well, 90 μL/well for Ba/F3 KRAS-G12D, Ba/F3 KRAS-G12V, and AGS cells respectively), incubated at 37° C. for 1 day with 5% CO2, and then a gradient dilution of the test compound was added thereto (compounds 1 to 28 and comparative compounds). The details were as follows, the compound stock solution (10 mM) previously dissolved in DMSO was diluted to 10 gradient concentrations at a fold ratio (4 fold) and diluted to 10 fold of the target concentration in another 96-well plate with culture medium, and then 10 μL/well of the compound solution was added to the 96-well plate seeded with cells to reach the target concentration (10000, 2500, 625, 156, 39, 10, 2.5, 0.6, 0.15, 0.04 nM). Each concentration was provided with 3 duplicate wells and a blank control. After continued incubation at 37° C. and 5% CO2 for 72 hours, 50 μL of CellTiter-Glo*2.0 reagent (luciferase ATP bioluminescence detection reagent, purchased from Promega, Cat. No.: G9243) was added to each well, shaken for 2 minutes, and incubated at room temperature for 8 minutes, and then fluorescence luminescence intensity was detected (light collection time was 100 ms). The inhibitory rate of compounds with various concentrations on cell proliferation was calculated. Cell proliferation inhibition rate (%)=[(luminous intensitycontrol group containing cell culture medium for 72 hour−luminous intensitycompound group for 72 hour)/(luminous intensitycontrol group containing cell culture medium for 72 hours−luminous intensitycontrol group without cell culture medium for 72 hour)]×100%. GraphPad Prism 8.3 software was used to analyze the data, and nonlinear S-curve regression was used to fit the data to obtain a dose-effect curve, from which the IC50 value was calculated.
# Ba/F3 KRAS-G12V cells = Ba/F3 KRAS-G12V cells (Homo sapiens, UniProt P01116, G12V, cells depend on it); test: Proliferation inhibitory activity on Ba/F3 KRAS-G12V stably transfected cell line (CellTiter-Glo, 72 hours); type: cell-based, mouse; details: read-out: Ba/F3 KRAS-G12V IC50
# Chain of Ba/F3 KRAS-G12V cells (P01116 whole entry G12V): as the sequence (P01116 whole entry G12D) above, with D12V counted along it
# Excerpt: as §1, §2, §3, §4
# AGS cells = test: Proliferation inhibitory activity on AGS tumor cell line containing KRAS G12D mutation (CellTiter-Glo, 72 hours); type: cell-based; details: Homo sapiens
# Excerpt: as §1, §2, §3, §4
GI50 (Ba/F3 KRAS-G12D cells),GI50 (Ba/F3 KRAS-G12V cells),Structure (SMILES),IC50 (AGS cells)
–,5 to 10 µM,"C#Cc1c(F)ccc2cc(O)cc(-c3ncc4c(N5C[C@H](N)C[C@@H](O)C5)nc(OC[C@@]56CCCN5C[C@H](F)C6)nc4c3F)c12 [Compound 14, (3R,5R)-5-Amino-1-(7-(8-ethynyl-7-fluoro-3-hydroxynaphthalen-1-yl)-8-fluoro-2-(((2R,7aS)-2-fluorohexahydro-1H-pyrrolizin-7a-yl)methoxy)pyrido[4,3-d]pyrimidin-4-yl)piperidin-3-ol bis(2,2,2-trifluoroacetate)]",–
–,5 to 10 µM,"Cc1cc(N)nc(-c2nc(N)c3c(N4C[C@H]5CC[C@@H](C4)N5)nc(OC[C@@]45CCCN4C[C@H](F)C5)nc3c2F)c1C(F)(F)F [Compound 19, 7-(6-Amino-4-methyl-3-(trifluoromethyl)pyridin-2-yl)-4-((1R,5S)-3,8-diazabicyclo[3.2.1]octan-3-yl)-8-fluoro-2-(((2R,7aS)-2-fluorohexahydro-1H-pyrrolizin-7a-yl)methoxy)pyrido[4,3-d]pyrimidin-5-amine]",–
–,5 to 10 µM,"C#Cc1c(F)ccc2cc(O)cc(-c3ncc4c(N5C[C@H](N)C[C@H](O)C5)nc(OC[C@@]56CCCN5C[C@H](F)C6)nc4c3F)c12 [Compound 13, (3S,5R)-5-Amino-1-(7-(8-ethynyl-7-fluoro-3-hydroxynaphthalen-1-yl)-8-fluoro-2-(((2R,7aS)-2-fluorohexahydro-1H-pyrrolizin-7a-yl)methoxy)pyrido[4,3-d]pyrimidin-4-yl)piperidin-3-ol]",–
–,5 to 10 µM,"C#Cc1c(F)ccc2cc(O)cc(-c3ncc4c(N5C[C@@H](N)C[C@@H](O)C5)nc(OC[C@@]56CCCN5C[C@H](F)C6)nc4c3F)c12 [Compound 16, (3R,5S)-5-Amino-1-(7-(8-ethynyl-7-fluoro-3-hydroxynaphthalen-1-yl)-8-fluoro-2-(((2R,7aS)-2-fluorohexahydro-1H-pyrrolizin-7a-yl)methoxy)pyrido[4,3-d]pyrimidin-4-yl)piperidin-3-ol bis(2,2,2-trifluoroacetate)]",–
5 to 10 µM,5 to 10 µM,"C#Cc1c(F)ccc2cc(O)cc(-c3ncc4c(N5CC[C@H](N)C5)nc(OC[C@@]56CCCN5C[C@H](F)C6)nc4c3F)c12 [Compound 15, 4-(4-((S)-3-Aminopyrrolidin-1-yl)-8-fluoro-2-(((2R,7aS)-2-fluorohexahydro-1H-pyrrolizin-7a-yl)methoxy)pyrido[4,3-d]pyrimidin-7-yl)-5-ethynyl-6-fluoronaphthalen-2-ol]",–
–,5 to 10 µM,"C#Cc1c(F)ccc2cc(O)cc(-c3ncc4c(N5C[C@@H]6[C@H](N)[C@@H]6C5)nc(OC[C@@]56CCCN5C[C@H](F)C6)nc4c3F)c12 [Compound 12, 4-(4-((1R,5S,6S)-6-Amino-3-azabicyclo[3.1.0]hexan-3-yl)-8-fluoro-2-(((2R,7aS)-2-fluorohexahydro-1H-pyrrolizin-7a-yl)methoxy)pyrido[4,3-d]pyrimidin-7-yl)-5-ethynyl-6-fluoronaphthalen-2-ol bis(2,2,2-trifluoroacetate)]",–

# Second part, the compound before the results:
Structure (SMILES),GI50 (Ba/F3 KRAS-G12D cells),GI50 (Ba/F3 KRAS-G12V cells),IC50 (AGS cells)
"C#Cc1c(F)ccc2cc(O)cc(-c3ncc4c(N5C[C@@H]6C[C@]6(N)C5)nc(OC[C@@]56CCCN5C[C@H](F)C6)nc4c3F)c12 [Compound 9, 4-(4-((1R,5S)-1-Amino-3-azabicyclo[3.1.0]hexan-3-yl)-8-fluoro-2-(((2R,7aS)-2-fluorohexahydro-1H-pyrrolizin-7a-yl)methoxy)pyrido[4,3-d]pyrimidin-7-yl)-5-ethynyl-6-fluoronaphthalen-2-ol]",5 to 10 µM,5 to 10 µM,–
"C#Cc1c(F)ccc2cc(O)cc(-c3ncc4c(C5=C[C@@H]6CC[C@H](C5)N6)nc(OC[C@@]56CCCN5C[C@H](F)C6)nc4c3F)c12 [Compound 23, 4-(4-((1R,5S)-8-Azabicyclo[3.2.1]oct-3-en-3-yl)-8-fluoro-2-(((2R,7aS)-2-fluorohexahydro-1H-pyrrolizin-7a-yl)methoxy)pyrido[4,3-d]pyrimidin-7-yl)-5-ethynyl-6-fluoronaphthalen-2-ol]",–,5 to 10 µM,2.5 µM
"N[C@H]1CCCN(c2nc(OC[C@@]34CCCN3C[C@H](F)C4)nc3c(F)c(-c4cc(O)cc5ccccc45)ncc23)C1 [Compound 3, 4-(4-((S)-3-Aminopiperidin-1-yl)-8-fluoro-2-(((2R,7aS)-2-fluorohexahydro-1H-pyrrolizin-7a-yl)methoxy)pyrido[4,3-d]pyrimidin-7-yl)naphthalen-2-ol]",–,5 to 10 µM,–
"Cc1cc(N)nc(-c2ncc3c(N4C[C@@H](N)C[C@H](O)C4)nc(OC[C@@]45CCCN4C[C@H](F)C5)nc3c2F)c1C(F)(F)F [Compound 1, (3S,5S)-5-Amino-1-(7-(6-amino-4-methyl-3-(trifluoromethyl)pyridin-2-yl)-8-fluoro-2-(((2R,7aS)-2-fluorohexahydro-1H-pyrrolizin-7a-yl)methoxy)pyrido[4,3-d]pyrimidin-4-yl)piperidin-3-ol bis(2,2,2-trifluoroacetate)]",–,5 to 10 µM,–
"N[C@@H]1CCCN(c2nc(OC[C@@]34CCCN3C[C@H](F)C4)nc3c(F)c(-c4cc(O)cc5ccccc45)ncc23)C1 [Compound 5, 4-(4-((R)-3-Aminopiperidin-1-yl)-8-fluoro-2-(((2R,7aS)-2-fluorohexahydro-1H-pyrrolizin-7a-yl)methoxy)pyrido[4,3-d]pyrimidin-7-yl)naphthalen-2-ol]",–,5 to 10 µM,–
"C#Cc1c(F)ccc2cc(O)cc(-c3ncc4c(N5CCC[C@H](N)C5)nc(OC[C@@]56CCCN5C[C@H](F)C6)nc4c3F)c12 [Compound 7, 4-(4-((S)-3-Aminopiperidin-1-yl)-8-fluoro-2-(((2R,7aS)-2-fluorohexahydro-1H-pyrrolizin-7a-yl)methoxy)pyrido[4,3-d]pyrimidin-7-yl)-5-ethynyl-6-fluoronaphthalen-2-ol]",5 to 10 µM,5 to 10 µM,–
"N[C@H]1C[C@H](O)CN(c2nc(OC[C@@]34CCCN3C[C@H](F)C4)nc3c(F)c(-c4cc(O)cc5ccccc45)ncc23)C1 [Compound 4, (3S,5S)-5-Amino-1-(8-fluoro-2-(((2R,7aS)-2-fluorohexahydro-1H-pyrrolizin-7a-yl)methoxy)-7-(3-hydroxynaphthalen-1-yl)pyrido[4,3-d]pyrimidin-4-yl)piperidin-3-ol]",–,5 to 10 µM,–
"Cc1cc(N)nc(-c2ncc3c(N4CCC[C@H](N)C4)nc(OC[C@@]45CCCN4C[C@H](F)C5)nc3c2F)c1C(F)(F)F [Compound 2, 6-(4-((S)-3-Aminopiperidin-1-yl)-8-fluoro-2-(((2R,7aS)-2-fluorohexahydro-1H-pyrrolizin-7a-yl)methoxy)pyrido[4,3-d]pyrimidin-7-yl)-4-methyl-5-(trifluoromethyl)pyridin-2-amine tetrakis(2,2,2-trifluoroacetate)]",–,5 to 10 µM,–
"[2H]C([2H])(Oc1nc(N2C[C@H]3CC[C@@H](C2)N3)c2c(Cl)nc(-c3cc(O)cc4ccc(F)c(C#C)c34)c(F)c2n1)[C@@]12CCCN1C[C@H](F)C2 [Compound 27, 4-(4-((1R,5S)-3,8-Diazabicyclo[3.2.1]octan-3-yl)-5-chloro-8-fluoro-2-(((2R,7aS)-2-fluorotetrahydro-1H-pyrrolizin-7a(5H)-yl)methoxy-d2)pyrido[4,3-d]pyrimidin-7-yl)-5-ethynyl-6-fluoronaphthalen-2-ol]",0.001 µM,–,0.006 µM
"C#Cc1c(F)ccc2cc(O)cc(-c3ncc4c(N5C[C@@H]6[C@@H](N)[C@@H]6C5)nc(OC[C@@]56CCCN5C[C@H](F)C6)nc4c3F)c12 [Compound 11, 4-(4-((1R,5S,6R)-6-Amino-3-azabicyclo[3.1.0]hexan-3-yl)-8-fluoro-2-(((2R,7aS)-2-fluorohexahydro-1H-pyrrolizin-7a-yl)methoxy)pyrido[4,3-d]pyrimidin-7-yl)-5-ethynyl-6-fluoronaphthalen-2-ol dihydrochloride]",–,5 to 10 µM,–
"C#Cc1c(F)ccc2cc(O)cc(-c3ncc4c(N5C[C@@H](N)C[C@H](O)C5)nc(OC[C@@]56CCCN5C[C@H](F)C6)nc4c3F)c12 [Compound 8, (3S,5S)-5-Amino-1-(7-(8-ethynyl-7-fluoro-3-hydroxynaphthalen-1-yl)-8-fluoro-2-(((2R,7aS)-2-fluorohexahydro-1H-pyrrolizin-7a-yl)methoxy)pyrido[4,3-d]pyrimidin-4-yl)piperidin-3-ol]",–,5 to 10 µM,–
